# In patent publication US20180193361A1, “GUT ANTI-INFLAMMATORY AGENTS FOR REGULATION OF HIGH BLOOD GLUCOSE LEVELS” (UNIVERSITY HEALTH NETWORK, priority 2015, published 2018):
# Assays:
# [1] = test system: gluconeogenesis enzyme and adipogenesis-related genes; experiment: q-PCR of gluconeogenesis and adipogenesis genes, HFD or HFD 5-ASA mice; assay type: in vivo
# From the text: We extracted total RNA from isolated or cultured cells using a RNeasy Mini Kit (Qiagen), and for subcutaneous adipose tissue (SAT) and VAT we used a RNeasy Lipid Extraction kit (Qiagen). We reverse-transcribed the RNA by random primers with M-MLV (Invitrogen). We performed q-PCR with a 7900HT PCR system (Applied Biosystems) using SYBR® Green master mix reagent (Applied Biosystems). We assessed expression of adipocyte P2 (aP2), CCAAT/enhancer-binding protein-α (CEBPα), Peroxisome proliferator-activated receptor-γ (PPARγ), and sterol regulatory element-binding protein (SREBP) cDNA. […] We calculated relative fold changes in gene expression normalized to 18s or GAPDH by the ΔΔCT method using the equation 2-ΔΔCT. The results are shown as fold changes compared to the control group.
# NCD-fed C57BL/6 mice = experiment: Metabolic studies, NCD or NCD 5-ASA; assay type: in vivo; conditions: NCD vs NCD 5-ASA 1500 mg/kg/day, 12 weeks
# Procedure: Mice. Mice were fed either NCD (15 kcal % fat) or HFD (Research Diets, 60 kcal % fat, irradiated) starting at 6 weeks of age. […] Mice were maintained in a pathogen-free, temperature-controlled environment on a 12-hour light and dark cycle. All mice used in comparative studies were male, age-matched, and litter mates where possible. […] We measured body weights, GTTs, ITTs, serum insulin, and fat cell diameter as previously described (Winer et al., 2009a). All GTTs were performed with a 1.5 g/kg glucose i.p. injection unless indicated otherwise.
# gut epithelial barrier = conditions: models of IBD (Di Paolo et al., 1996; Liu et al., 2009); cited from earlier work
# [2] = test system: bowel and VAT immune cell populations; experiment: Immune cell populations in NCD vs NCD 5-ASA mice; assay type: in vivo; conditions: bowels or VATs, NCD 5-ASA vs untreated NCD mice
# From the text: Isolation of bowel immune cells. For isolation of small intestine lamina propria immune cells, we used the protocol described by Fritz et al (Fritz et al., 2012), and processed approximately 10 cm from the distal end of the small intestine (jejunum and ileum). For the isolation of colonic lamina propria immune cells, we used the protocol described by Geddes et al (Geddes et al., 2011). Following lamina propria isolations, we passed immune cells through 70 μm strainers, and used them for flow cytometry.
# We isolated VAT-associated immune cells as previously described (Winer et al., 2009a).
# We stained single cell suspensions for 30 min on ice with commercial antibodies. Flow cytometry antibodies including CD45.2 (104), CD3 (145-2C11), CD4 (GK1.5), CD8 (53-6.7), CD25 (PC61), γδTcR (GL3), Foxp3 (150D), IL-17 (TC11-18H10.1), IFNγ XMG1.2), α4β7 (DATK32), CCR9 (CW-1.2), CD11b (M1/70), F4/80 (BM8), CD11c (N418), CD206 (C068C2), Gr-1 (RB6-8C5), IL-7Rα (A7R34), B220 (RA3-6B2), Thy1.2 (30-H12), NKp46 (29A1.4), and Sca-1 (D7) were purchased from Biolegend. Intracellular staining was performed using a Foxp3 staining buffer kit (eBioscience). We acquired data on a Fortessa flow cytometer (BD Biosciences) and analyzed it with FlowJo software (Tree Star). We gated ILCs as described (Kirchberger et al., 2013).
# [3] = test system: Lck-Cre PPARγfl/fl T cells; experiment: In vitro IFNγ secretion, T cells lacking PPARγ (Lck-Cre PPARγfl/fl); assay type: cell-based, mice; conditions: HFD-fed Lck-Cre+ PPARγfl/fl vs WT, 5-ASA in vitro 0.01-1 mM
# Procedure: Mice. Mice were fed either NCD (15 kcal % fat) or HFD (Research Diets, 60 kcal % fat, irradiated) starting at 6 weeks of age. All studies were performed under the approval of Animal User Protocols by the Animal Care Committee at the University Health Network. Mice were maintained in a pathogen-free, temperature-controlled environment on a 12-hour light and dark cycle. All mice used in comparative studies were male, age-matched, and litter mates where possible. […] We confirmed T cell-specific floxing of the PPARγ gene in Lck-Cre+ PPARγfl/fl mice by qPCR with a minimum of at least 90% reduction in PPARγ expression. […] To measure the effect of IFNγ on tight-junction gene expression, we treated MODE-K cells with recombinant mouse IFNγ (Biolegend). We purified bulk dendritic cells and T cells from murine small bowels and spleens using a negative selection DC or T cell isolation kit (Stem Cell Technologies). We plated T cells at 5×10^5 cells/well with plate-bound anti-CD3/CD28 (1 μg/ml, Biolegend). […] We collected supernatants for cytokine measurements after 72 hour incubation. […] We measured serum cytokines by Luminex Multiplex cytokine assay (Millipore, run by the UHN Microarray Center), and quantified IL-10 and IFN-γ in supernatants of anti-CD3/CD28-stimulated splenocytes or bowel immune cells (Winer et al., 2009b) by ELISA (Biolegend).
# [4] = HPLC of 5-ASA in serum and tissues with internal 4-ASA standard; assay type: in vivo, mice; conditions: mouse, colon and small bowel relative to serum, oral
# Procedure: We cut frozen tissues and homogenized them in 80% methanol (30 mg/mL) on ice. We spiked 100 μL aliquots with 4-ASA used as internal standard (200 ng), and 400 μL 80% methanol were added. For plasma, we thawed samples from −80° C. at room temperature. 75 μL plasma were spiked with 4-ASA used as internal standard (200 ng) and mixed with 300 μL of methanol for 5 minutes (vortex). Samples were centrifuged (20,000×g, 15 minutes, 4° C.). Supernatants were separated from the pellets and taken to dryness under nitrogen gas in the fumehood. We then reconstituted the dry residues in 200 μL of mobile phase, vortexed for 1 minute and centrifuged at 20,000×g for 15 minutes. The supernatants were transferred to autosampler vials fitted with inserts and sealed caps. Aliquots of the solution were injected into HPLC for analysis.
# We performed high performance liquid chromatography using a Dionex Ultimate 3000 system equipped with a binary pump, a built-in autosampler, a photodiode array and a RF 2000 fluorescence detector. […] The analytes were monitored by fluorescence (excitation: 337 nm and emission: 432 nm) and by (UV235 nm). We analyzed the chromatograms produced using Chromeleon version 6.8 software.
# splenic T cells = experiment: In vitro IFNγ secretion, anti-CD3/CD28-activated splenic T cells; assay type: cell-based; conditions: splenic T cells from HFD-fed WT mice, 72 hour; 5-ASA 0.1 mM
# Procedure: To measure the effect of IFNγ on tight-junction gene expression, we treated MODE-K cells with recombinant mouse IFNγ (Biolegend). We purified bulk dendritic cells and T cells from murine small bowels and spleens using a negative selection DC or T cell isolation kit (Stem Cell Technologies). We plated T cells at 5×10^5 cells/well with plate-bound anti-CD3/CD28 (1 μg/ml, Biolegend). […] We collected supernatants for cytokine measurements after 72 hour incubation. […] After 24 hours, we washed the cells with PBS and co-cultured them (1×10^4 cells/well) with OVA323-339 peptide and OT-II splenic or small bowel T cells (5×10^4 cells/well) for 48 hours. Supernatants were collected at 48 hours for cytokine measurement. We measured serum cytokines by Luminex Multiplex cytokine assay (Millipore, run by the UHN Microarray Center), and quantified IL-10 and IFN-γ in supernatants of anti-CD3/CD28-stimulated splenocytes or bowel immune cells (Winer et al., 2009b) by ELISA (Biolegend).
compound,measurement,setting,value
"Nc1ccc(O)c(C(=O)O)c1 [5-ASA, 5-aminosalicylic acid]",gluconeogenesis enzyme gene expression,[1]; HFD vs HFD 5-ASA 1500 mg/kg/day,could not detect significant changes
same,expression of adipogenesis-related genes,"[1]; VAT or SAT, HFD 5-ASA relative to HFD, 18 weeks of diet",no effects
same,IR,NCD-fed C57BL/6 mice,little or no difference
same,body weight,NCD-fed C57BL/6 mice,little or no difference
same,fasting glucose,NCD-fed C57BL/6 mice,little or no difference
same,glucose tolerance,NCD-fed C57BL/6 mice,little or no difference
same,intactness of the gut epithelial barrier,gut epithelial barrier,beneficial effects
same,significant anti-inflammatory effects on immune cell populations,[2],not seen
same,suppressive effects on IFNγ with loss of PPARγ in T cells,[3],abrogated
same,Kp,[4],~20
same,IFNγ production,splenic T cells,not
